#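 The compound was tested at five concentrations on cells cultured in 96-well plates, with a 48-hour exposure period. At the GI50, growth is halved. TGI denotes the concentration required for complete inhibition of growth.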
# Assays:
# Assay in all cases: inhibition of tumour cell growth, NCI panel, 48 h
# KM12 colon = tested on: KM12 colon
# 786-0 renal = tested on: 786-0 renal
# NCI-H23 lung = tested on: NCI-H23 lung
# LOX IMVI melanoma = tested on: LOX IMVI melanoma
# IGROV1 ovarian = tested on: IGROV1 ovarian
# SK-OV-3 ovarian = tested on: SK-OV-3 ovarian
# HOP-62 NSCLC = tested on: HOP-62 NSCLC
# SF-295 CNS = tested on: SF-295 CNS
# M19-MEL melanoma = tested on: M19-MEL melanoma
# LXFL 529 NSCLC = tested on: LXFL 529 NSCLC
# TK-10 renal = tested on: TK-10 renal
# UACC-257 melanoma = tested on: UACC-257 melanoma
# MALME-3M melanoma = tested on: MALME-3M melanoma
# EKVX NSCLC = tested on: EKVX NSCLC
# SF-539 CNS = tested on: SF-539 CNS
# K-562 leukemia = tested on: K-562 leukemia
# DMS 114 small cell lung = tested on: DMS 114 small cell lung
# HCT-116 colon = tested on: HCT-116 colon
# RPMI-8226 leukemia = tested on: RPMI-8226 leukemia
# SK-MEL-5 melanoma = tested on: SK-MEL-5 melanoma
# DLD-1 colon = tested on: DLD-1 colon
# CAKI-1 renal = tested on: CAKI-1 renal
# OVCAR-3 ovarian = tested on: OVCAR-3 ovarian
# A549 NSCLC = tested on: A549 NSCLC
# HCT-15 colon = tested on: HCT-15 colon
# CCRF-CEM leukemia = tested on: CCRF-CEM leukemia
# OVCAR-5 ovarian = tested on: OVCAR-5 ovarian
# SK-MEL-2 melanoma = tested on: SK-MEL-2 melanoma
# ACHN renal = tested on: ACHN renal
# SW-620 colon = tested on: SW-620 colon
# SF-268 CNS = tested on: SF-268 CNS
# OVCAR-4 ovarian = tested on: OVCAR-4 ovarian
# NCI-H460 lung = tested on: NCI-H460 lung
# SNB-78 CNS = tested on: SNB-78 CNS
# XF 498 CNS = tested on: XF 498 CNS
# DMS 273 small cell lung = tested on: DMS 273 small cell lung
# COLO 205 colon = tested on: COLO 205 colon
# U251 CNS = tested on: U251 CNS
# OVCAR-8 ovarian = tested on: OVCAR-8 ovarian
# HOP-92 NSCLC = tested on: HOP-92 NSCLC
# SK-MEL-28 melanoma = tested on: SK-MEL-28 melanoma
# SN12C renal = tested on: SN12C renal
# UACC-62 melanoma = tested on: UACC-62 melanoma
# SNB-75 CNS = tested on: SNB-75 CNS
# UO-31 renal = tested on: UO-31 renal
# HL-60(TB) leukemia = tested on: HL-60(TB) leukemia
# SR leukemia = tested on: SR leukemia
# NCI-H226 lung = tested on: NCI-H226 lung
# NCI-H522 lung = tested on: NCI-H522 lung
# MOLT-4 leukemia = tested on: MOLT-4 leukemia
# SNB-19 CNS = tested on: SNB-19 CNS
# KM20L2 colon = tested on: KM20L2 colon
# M14 melanoma = tested on: M14 melanoma
# HT29 colon = tested on: HT29 colon
# RXF 393 renal = tested on: RXF 393 renal
# A498 renal = tested on: A498 renal
# HCC-2998 colon = tested on: HCC-2998 colon
compound,measurement,setting,value
O=[N+]([O-])c1nccn1COCCI,TGI,KM12 colon,> 100000 nM
same,TGI,786-0 renal,> 100000 nM
same,TGI,NCI-H23 lung,> 100000 nM
same,TGI,LOX IMVI melanoma,> 100000 nM
same,TGI,IGROV1 ovarian,> 100000 nM
same,TGI,SK-OV-3 ovarian,> 100000 nM
same,TGI,HOP-62 NSCLC,> 100000 nM
same,TGI,SF-295 CNS,> 100000 nM
same,TGI,M19-MEL melanoma,> 100000 nM
same,TGI,LXFL 529 NSCLC,> 100000 nM
same,TGI,TK-10 renal,> 100000 nM
same,TGI,UACC-257 melanoma,> 100000 nM
same,TGI,MALME-3M melanoma,> 100000 nM
same,TGI,EKVX NSCLC,> 100000 nM
same,TGI,SF-539 CNS,> 100000 nM
same,TGI,K-562 leukemia,> 100000 nM
same,TGI,DMS 114 small cell lung,> 100000 nM
same,TGI,HCT-116 colon,> 100000 nM
same,TGI,RPMI-8226 leukemia,> 100000 nM
same,TGI,SK-MEL-5 melanoma,> 100000 nM
same,TGI,DLD-1 colon,> 100000 nM
same,TGI,CAKI-1 renal,> 100000 nM
same,TGI,OVCAR-3 ovarian,> 100000 nM
same,TGI,A549 NSCLC,> 100000 nM
same,TGI,HCT-15 colon,> 100000 nM
same,TGI,CCRF-CEM leukemia,> 100000 nM
same,TGI,OVCAR-5 ovarian,> 100000 nM
same,TGI,SK-MEL-2 melanoma,> 100000 nM
same,TGI,ACHN renal,> 100000 nM
same,TGI,SW-620 colon,> 100000 nM
same,TGI,SF-268 CNS,> 100000 nM
same,TGI,OVCAR-4 ovarian,> 100000 nM
same,TGI,NCI-H460 lung,> 100000 nM
same,TGI,SNB-78 CNS,> 100000 nM
same,TGI,XF 498 CNS,> 100000 nM
same,TGI,DMS 273 small cell lung,> 100000 nM
same,TGI,COLO 205 colon,> 100000 nM
same,TGI,U251 CNS,> 100000 nM
same,TGI,OVCAR-8 ovarian,> 100000 nM
same,TGI,HOP-92 NSCLC,> 100000 nM
same,TGI,SK-MEL-28 melanoma,> 100000 nM
same,TGI,SN12C renal,> 100000 nM
same,TGI,UACC-62 melanoma,> 100000 nM
same,TGI,SNB-75 CNS,> 100000 nM
same,TGI,UO-31 renal,> 100000 nM
same,TGI,HL-60(TB) leukemia,> 100000 nM
same,TGI,SR leukemia,> 100000 nM
same,TGI,NCI-H226 lung,> 100000 nM
same,TGI,NCI-H522 lung,> 100000 nM
same,TGI,MOLT-4 leukemia,> 100000 nM
same,TGI,SNB-19 CNS,> 100000 nM
same,TGI,KM20L2 colon,> 100000 nM
same,TGI,M14 melanoma,> 100000 nM
same,TGI,HT29 colon,> 100000 nM
CCC[CH2][Sn]([CH2]CCC)([O]C(=O)c1ccc(C)c(N)c1)[O]C(=O)c1ccc(C)c(N)c1,GI50,KM12 colon,1310 nM
same,TGI,KM12 colon,2610 nM
same,GI50,786-0 renal,323 nM
same,TGI,786-0 renal,1310 nM
same,GI50,RXF 393 renal,116 nM
same,TGI,RXF 393 renal,511 nM
same,GI50,NCI-H23 lung,203 nM
same,TGI,NCI-H23 lung,1000 nM
same,GI50,LOX IMVI melanoma,185 nM
same,TGI,LOX IMVI melanoma,681 nM
same,GI50,IGROV1 ovarian,1160 nM
same,TGI,IGROV1 ovarian,2420 nM
same,GI50,SK-OV-3 ovarian,1840 nM
same,TGI,SK-OV-3 ovarian,3240 nM
same,GI50,HOP-62 NSCLC,2290 nM
same,TGI,HOP-62 NSCLC,3780 nM
same,GI50,A498 renal,351 nM
same,TGI,A498 renal,1210 nM
same,GI50,SF-295 CNS,1240 nM
same,TGI,SF-295 CNS,2490 nM
same,GI50,M19-MEL melanoma,244 nM
same,TGI,M19-MEL melanoma,1280 nM
same,GI50,LXFL 529 NSCLC,47.3 nM
same,TGI,LXFL 529 NSCLC,176 nM
same,GI50,TK-10 renal,515 nM
same,TGI,TK-10 renal,1660 nM
same,GI50,UACC-257 melanoma,334 nM
same,TGI,UACC-257 melanoma,1620 nM
same,GI50,MALME-3M melanoma,179 nM
same,TGI,MALME-3M melanoma,776 nM
same,GI50,HCC-2998 colon,1140 nM
same,TGI,HCC-2998 colon,2360 nM
same,GI50,EKVX NSCLC,600 nM
same,TGI,EKVX NSCLC,1940 nM
same,GI50,SF-539 CNS,619 nM
same,TGI,SF-539 CNS,1890 nM
same,GI50,DMS 114 small cell lung,132 nM
same,TGI,DMS 114 small cell lung,322 nM
same,GI50,HCT-116 colon,527 nM
same,TGI,HCT-116 colon,1860 nM
same,GI50,SK-MEL-5 melanoma,1080 nM
same,TGI,SK-MEL-5 melanoma,2280 nM
same,GI50,DLD-1 colon,282 nM
same,TGI,DLD-1 colon,1250 nM
same,GI50,CAKI-1 renal,136 nM
same,TGI,CAKI-1 renal,1380 nM
same,GI50,OVCAR-3 ovarian,1070 nM
same,TGI,OVCAR-3 ovarian,2260 nM
same,GI50,A549 NSCLC,2820 nM
same,TGI,A549 NSCLC,8330 nM
same,GI50,HCT-15 colon,698 nM
same,TGI,HCT-15 colon,2010 nM
same,GI50,OVCAR-5 ovarian,1820 nM
same,TGI,OVCAR-5 ovarian,3220 nM
same,GI50,SK-MEL-2 melanoma,172 nM
same,TGI,SK-MEL-2 melanoma,720 nM
same,GI50,ACHN renal,352 nM
same,TGI,ACHN renal,1320 nM
same,GI50,SW-620 colon,224 nM
same,TGI,SW-620 colon,1040 nM
same,GI50,SF-268 CNS,418 nM
same,TGI,SF-268 CNS,1630 nM
same,GI50,OVCAR-4 ovarian,1240 nM
same,TGI,OVCAR-4 ovarian,2480 nM
same,GI50,NCI-H460 lung,1430 nM
same,TGI,NCI-H460 lung,2740 nM
same,GI50,SNB-78 CNS,277 nM
same,TGI,SNB-78 CNS,1540 nM
same,GI50,XF 498 CNS,181 nM
same,TGI,XF 498 CNS,353 nM
same,GI50,DMS 273 small cell lung,623 nM
same,TGI,DMS 273 small cell lung,1970 nM
same,GI50,COLO 205 colon,330 nM
same,TGI,COLO 205 colon,1380 nM
same,GI50,U251 CNS,287 nM
same,TGI,U251 CNS,1280 nM
same,GI50,OVCAR-8 ovarian,910 nM
same,TGI,OVCAR-8 ovarian,2120 nM
same,GI50,HOP-92 NSCLC,305 nM
same,TGI,HOP-92 NSCLC,1700 nM
same,GI50,SK-MEL-28 melanoma,347 nM
same,TGI,SK-MEL-28 melanoma,1570 nM
same,GI50,SN12C renal,537 nM
same,TGI,SN12C renal,1830 nM
same,GI50,UACC-62 melanoma,378 nM
same,TGI,UACC-62 melanoma,1440 nM
same,GI50,SNB-75 CNS,502 nM
same,TGI,SNB-75 CNS,1870 nM
same,GI50,UO-31 renal,1110 nM
same,TGI,UO-31 renal,2310 nM
same,GI50,HL-60(TB) leukemia,144 nM
same,TGI,HL-60(TB) leukemia,863 nM
same,GI50,SR leukemia,179 nM
same,TGI,SR leukemia,3620 nM
same,GI50,NCI-H226 lung,334 nM
same,TGI,NCI-H226 lung,1440 nM
same,GI50,NCI-H522 lung,18 nM
same,TGI,NCI-H522 lung,117 nM
same,GI50,MOLT-4 leukemia,108 nM
same,TGI,MOLT-4 leukemia,643 nM
same,GI50,SNB-19 CNS,1200 nM
same,TGI,SNB-19 CNS,2430 nM
same,GI50,KM20L2 colon,1500 nM
same,TGI,KM20L2 colon,2820 nM
same,GI50,M14 melanoma,647 nM
same,TGI,M14 melanoma,1920 nM
same,GI50,HT29 colon,1340 nM
same,TGI,HT29 colon,2640 nM

# Source: PubChem BioAssay (NCI)
